Assay results reported in patent US20230012570A1, “BICYCLIC COMPOUND USED AS SELECTIVE ANDROGEN RECEPTOR MODULATOR” (MEDSHINE DISCOVERY INC., priority 2019, published 2023).

Assays:
Type in all cases: in vitro ADME
[1] = molecular target: T1, CYP1A2 (Homo sapiens, UniProt P05177); assay: Human liver microsomal CYP inhibition experiment, CYP1A2
T1 construct: Mixed human liver microsomes (HLM) were purchased from Corning Inc; tissue Corning Inc. or XenoTech, LLC. or other suppliers; host or cells: pooled human liver microsomes
T1 sequence (P05177 1-516): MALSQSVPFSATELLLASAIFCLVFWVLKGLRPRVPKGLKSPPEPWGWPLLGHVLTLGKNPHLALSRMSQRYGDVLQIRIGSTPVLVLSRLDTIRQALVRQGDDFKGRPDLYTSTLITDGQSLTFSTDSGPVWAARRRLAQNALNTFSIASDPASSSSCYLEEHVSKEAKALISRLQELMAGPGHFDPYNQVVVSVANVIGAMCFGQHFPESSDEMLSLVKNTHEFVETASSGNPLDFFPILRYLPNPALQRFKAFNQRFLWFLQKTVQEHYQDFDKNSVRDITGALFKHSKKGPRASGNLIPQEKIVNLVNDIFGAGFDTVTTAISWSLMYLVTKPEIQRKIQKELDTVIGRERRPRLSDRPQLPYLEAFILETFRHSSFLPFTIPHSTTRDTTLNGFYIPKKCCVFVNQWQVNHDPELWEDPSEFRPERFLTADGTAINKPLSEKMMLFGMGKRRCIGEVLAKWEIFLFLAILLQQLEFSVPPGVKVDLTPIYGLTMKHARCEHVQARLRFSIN
Protocol: (§1) Experiment Embodiment 4: Human Liver Microsomal CYP Inhibition Experiment
(§2) The inhibitory effects of the test compound 3A and VK5211 on the activities of human liver microsomal cytochrome P450 isozymes (CYP1A2, CYP2C9, CYP2C19, CYP2D6 and CYP3A4) were determined.
(§3) Mixed human liver microsomes (HLM) were purchased from Corning Inc. (Steuben, New York, USA) or XenoTech, LLC. (Lenexa, Kans., USA) or other suppliers, and were stored at a temperature below −60° C. before use.
(§4) First, the test compound (10.0 mM) was gradient diluted to prepare working solution (100×final concentration), and the concentrations of the working solution were: 5.00, 1.50, 0.500, 0.150, 0.0500, 0.0150, 0.00500 mM, and a working solution of each positive inhibitor of P450 isozymes (CYP1A2, CYP2C9, CYP2C19, CYP2D6, and CYP3A4) and a specific substrate mixture thereof (5 in 1) were prepared at the same time; human liver microsomes stored in a refrigerator at a temperature lower than −60° C. were put on ice to thaw, and when all the human liver microsomes were dissolved, the microsomes were diluted with potassium phosphate buffer (PB) to prepare a working solution of a certain concentration (0.253 mg/mL). […] The concentration of metabolites produced by the probe substrate in the sample was determined by liquid chromatography-tandem mass spectrometry (LC-MS/MS) method. […]

[2] = molecular target: T2, CYP2C9 (Homo sapiens, UniProt P11712); assay: Human liver microsomal CYP inhibition experiment, CYP2C9
T2 construct: Mixed human liver microsomes (HLM) were purchased from Corning Inc; tissue Corning Inc. or XenoTech, LLC. or other suppliers; host or cells: pooled human liver microsomes
T2 sequence (P11712 whole entry): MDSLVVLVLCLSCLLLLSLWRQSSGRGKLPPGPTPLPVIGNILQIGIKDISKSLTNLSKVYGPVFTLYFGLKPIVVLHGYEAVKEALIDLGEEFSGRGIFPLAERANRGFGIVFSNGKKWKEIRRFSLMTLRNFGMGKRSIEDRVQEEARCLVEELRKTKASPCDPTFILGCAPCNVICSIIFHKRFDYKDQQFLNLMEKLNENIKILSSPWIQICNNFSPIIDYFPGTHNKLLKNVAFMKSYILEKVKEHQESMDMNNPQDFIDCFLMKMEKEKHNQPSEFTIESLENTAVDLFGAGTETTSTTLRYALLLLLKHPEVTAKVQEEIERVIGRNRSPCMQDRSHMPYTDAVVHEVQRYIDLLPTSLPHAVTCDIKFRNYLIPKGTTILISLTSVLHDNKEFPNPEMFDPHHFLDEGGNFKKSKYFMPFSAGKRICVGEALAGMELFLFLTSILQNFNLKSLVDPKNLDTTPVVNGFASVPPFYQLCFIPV
Protocol: as §1, §2, §3, §4

[3] = molecular target: T3, CYP2C19 (Homo sapiens, UniProt P33261); assay: Human liver microsomal CYP inhibition experiment, CYP2C19
T3 construct: Mixed human liver microsomes (HLM) were purchased from Corning Inc; tissue Corning Inc. or XenoTech, LLC. or other suppliers; host or cells: pooled human liver microsomes
T3 sequence (P33261 whole entry): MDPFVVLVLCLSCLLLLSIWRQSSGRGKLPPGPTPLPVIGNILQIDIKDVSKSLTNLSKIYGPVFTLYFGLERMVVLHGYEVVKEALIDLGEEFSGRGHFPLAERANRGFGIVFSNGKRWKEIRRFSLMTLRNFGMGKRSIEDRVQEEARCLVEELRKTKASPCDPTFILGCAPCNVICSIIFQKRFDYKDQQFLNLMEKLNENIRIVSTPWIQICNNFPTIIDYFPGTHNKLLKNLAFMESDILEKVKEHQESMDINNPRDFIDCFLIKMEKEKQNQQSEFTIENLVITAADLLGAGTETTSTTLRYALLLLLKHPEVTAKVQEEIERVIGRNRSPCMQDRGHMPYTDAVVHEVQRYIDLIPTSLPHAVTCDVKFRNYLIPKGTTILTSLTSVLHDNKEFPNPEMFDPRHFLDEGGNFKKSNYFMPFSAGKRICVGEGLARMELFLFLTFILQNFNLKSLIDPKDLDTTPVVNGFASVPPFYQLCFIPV
Protocol: as §1, §2, §3, §4

[4] = molecular target: T4, CYP2D6 (Homo sapiens, UniProt P10635); assay: Human liver microsomal CYP inhibition experiment, CYP2D6
T4 construct: Mixed human liver microsomes (HLM) were purchased from Corning Inc; tissue Corning Inc. or XenoTech, LLC. or other suppliers; host or cells: pooled human liver microsomes
T4 sequence (P10635 whole entry): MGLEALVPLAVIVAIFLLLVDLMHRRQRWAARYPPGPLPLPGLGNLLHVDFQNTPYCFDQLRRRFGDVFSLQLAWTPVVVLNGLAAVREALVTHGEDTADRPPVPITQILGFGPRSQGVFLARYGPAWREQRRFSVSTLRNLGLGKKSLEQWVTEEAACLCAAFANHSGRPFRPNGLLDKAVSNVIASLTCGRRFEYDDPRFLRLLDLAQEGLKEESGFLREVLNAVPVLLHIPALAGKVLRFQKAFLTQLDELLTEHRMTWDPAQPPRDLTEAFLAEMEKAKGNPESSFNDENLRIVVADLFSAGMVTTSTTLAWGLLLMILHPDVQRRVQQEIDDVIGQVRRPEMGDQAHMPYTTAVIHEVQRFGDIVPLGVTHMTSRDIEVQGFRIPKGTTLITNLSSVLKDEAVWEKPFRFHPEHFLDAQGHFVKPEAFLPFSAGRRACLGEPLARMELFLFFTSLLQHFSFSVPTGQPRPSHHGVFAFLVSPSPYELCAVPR
Protocol: as §1, §2, §3, §4

[5] = molecular target: T5, CYP3A4 (Homo sapiens, UniProt P08684); assay: Human liver microsomal CYP inhibition experiment, CYP3A4
T5 construct: Mixed human liver microsomes (HLM) were purchased from Corning Inc; tissue Corning Inc. or XenoTech, LLC. or other suppliers; host or cells: pooled human liver microsomes
T5 sequence (P08684 whole entry): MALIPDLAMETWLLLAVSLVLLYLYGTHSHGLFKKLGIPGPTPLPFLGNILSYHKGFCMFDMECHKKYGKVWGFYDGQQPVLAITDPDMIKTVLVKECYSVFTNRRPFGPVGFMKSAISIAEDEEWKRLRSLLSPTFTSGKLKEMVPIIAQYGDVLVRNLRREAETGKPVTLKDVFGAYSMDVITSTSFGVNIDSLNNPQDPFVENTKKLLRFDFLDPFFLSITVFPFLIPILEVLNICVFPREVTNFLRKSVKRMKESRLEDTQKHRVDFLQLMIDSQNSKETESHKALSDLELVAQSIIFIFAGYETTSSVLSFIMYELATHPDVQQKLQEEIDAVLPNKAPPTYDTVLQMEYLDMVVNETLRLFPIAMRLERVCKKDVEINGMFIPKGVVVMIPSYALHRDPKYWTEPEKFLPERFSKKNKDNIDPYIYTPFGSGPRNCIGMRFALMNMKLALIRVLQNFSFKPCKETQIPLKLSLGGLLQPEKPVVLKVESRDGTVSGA
Protocol: as §1, §2, §3, §4

N#Cc1ccc(N2CCC[C@@H]2[C@@H](O)C(F)(F)F)cc1C(F)(F)F [VK5211, reference compound]
IC50 [1]: 4.44 µM
IC50 [2]: 5.84 µM
IC50 [3]: 4.23 µM
IC50 [4]: 7.67 µM
IC50 [5]: 44.7 µM
